In paper PMC4833300, “Identification of Trypanocidal Activity for Known Clinical Compounds Using a New Trypanosoma cruzi Hit-Discovery Screening Cascade” (PLoS Neglected Tropical Diseases, 2016):
Read-outs that look alike come from different tables or passages of the source.

Experiments:
[1] = system: intracellular T. cruzi amastigotes; test: Primary high-content intracellular T. cruzi amastigote assay; assay type: cell-based, Trypanosoma cruzi (Silvio X10/7 A1) in Vero cells; details: for EC50: Trypanosoma cruzi, read-out: pEC50 (cruzi) (converted)
Protocol: (§1) The compounds tested were obtained from the NIH (Clinical Collection) and from SelleckChem (FDA-approved drug library). Compounds were dispensed into black 384-well assay plates (Corning) by acoustic dispensing (LabCyte ECHO). […] Potencies are reported as pEC50 (-LOG(EC50[M])).
(§2) For the primary intracellular assay the infection conditions were chosen so that no trypomastigote egress occurs during the compound incubation time. First, Vero cells were infected overnight with tissue culture derived T. cruzi trypomastigotes in T225 tissue culture flasks (MOI 5). Next, any remaining free trypomastigotes were washed away with serum free MEM and the infected Vero cells were harvested by trypsinisation. The infected Vero cells were then plated into 384-well plates containing the compounds to be tested, at 4000 cells per well in MEM media with 1% FCS. […] The plates were imaged on a Perkin Elmer Operetta high-content imaging system using a 20x objective. Images were analysed using the Columbus system (Perkin Elmer). The algorithm for the primary assay first identified the Vero nuclei followed by demarcation of the cytoplasm and identification of intracellular amastigotes. This algorithm reported mean number of parasites per Vero cell and total number of Vero cells. Data analysis was as described in [22]. […] Hits from the primary screen were selected based on the following criteria: T. cruzi activity (percent inhibition) > (median T. cruzi percent inhibition + 3 x robust Standard Deviation) and Vero activity (percent inhibition) < (median percent Vero inhibition + 3 x robust Standard Deviation).

Vero cells = test: Host cell toxicity read-out of the primary assay (Vero cell count); assay type: cell-based; details: for EC50: Chlorocebus sabaeus, Vero, read-out: pEC50 (Vero) (converted)
Protocol: as §1, §2

intracellular T. cruzi [2] = test: Rate-of-kill assay (static-cidal assay in timecourse format); assay type: cell-based, Trypanosoma cruzi (Silvio X10/7 A1) in Vero cells; details: Trypanosoma cruzi; -LOG(MCC[M]); minimum cidal concentration, lowest concentration clearing at least half as many Vero cells as Nifurtimox (50μM) within 96 h; read-out: pMCC (RoK) (converted)
Protocol: The rate-of-kill assay uses the same protocol as the static-cidal assay but plates are incubated for 24, 48, 72 and 96 hours prior to fixing. Percent infected data is plotted as a time-course for each compound at every concentration. The minimum cidal concentration (MCC) is defined as the lowest concentration of compound that clears at least half as many Vero cells of intracellular parasites as Nifurtimox (50μM) within the timeframe of the assay.
To obtain rate-of-kill information we carried out the static-cidal assay in timecourse format (Fig 4A), with timepoints taken every 24h.

intracellular T. cruzi [3] = test: Static-cidal assay (percent infected Vero cells, 96 h); assay type: cell-based, Trypanosoma cruzi (Silvio X10/7 A1) in Vero cells; details: Trypanosoma cruzi, Vero; 96 h; 0% = starting level of infection, 100% = 50μM Nifurtimox at 96h; only from concentrations not toxic to the host cells; read-out: MAX PI (SC), Maximum Percent Inhibition in the static cidal assay
Protocol: The secondary static-cidal assay uses the same protocol as the standard assay with the following changes: infection is done at MOI 10, and infected Vero cells are incubated 88h at 37°C in presence of 5% CO2 prior to trypsinisation and plating. Four hours after plating a control plate (no compounds) was fixed with formaldehyde as described above. Compound containing plates were fixed after incubation for 96 hours. Compounds are run as ten point dose response curves in triplicate. The algorithm for the secondary assay was similar to the primary assay but reported percent infected Vero cells instead of the mean number of parasites.
To assess screening hits for their ability to be cytocidal rather than cytostatic or growth slowing we developed a medium throughput (400 compounds / batch) assay to predict cidality of compounds against intracellular T. cruzi. […] Instead we developed an algorithm that assesses whether a Vero cell is infected or not, and we used the percentage of infected cells as primary measurement for the static-cidal assay. In order to readily identify cidal compounds we normalised the raw data using the starting level of infection as 0% effect and the final level of infection in presence of 50μM Nifurtimox as 100% effect control.

[4] = hits of the bio-actives screen, 10-point dose-response, top concentration 50μM, 72h

## Nc1ncnc2c1ncn2[C@@H]1O[C@H](CO)C[C@H]1O [3'-deoxydenosine]
[1]; [4]
  pEC50 (cruzi): 5.6
Vero cells; [4]
  pEC50 (Vero): 4.3

## CCCCC(=O)O[C@H]1CC[C@H]2[C@@H]3CCc4cc(O)ccc4[C@H]3CC[C@]12C [17β-estradiol 17-valerate]
[1]; [4]
  pEC50 (cruzi): 5.0
Vero cells; [4]
  pEC50 (Vero): 4.9

## CC(C)(C)C(=O)OCOP(=O)(COCCn1cnc2c(N)ncnc21)OCOC(=O)C(C)(C)C [Adefovir Dipivoxil]
[1]; [4]
  EC50: 6.31 µM
Vero cells; [4]
  EC50: 15.8 µM

## CCC(C)(C)c1ccc(CC(C)CN2C[C@@H](C)O[C@@H](C)C2)cc1 (some centres unmarked) [Amorolfine]
[1]; [4]
  EC50: 10 µM
Vero cells; [4]
  EC50: 15.8 µM

## COC(=O)C1=C(C)NC(C)=C(C(=O)OC2CCCN(Cc3ccccc3)C2)C1c1cccc([N+](=O)[O-])c1 (centres unmarked) [Benidipine]
[1]; [4]
  EC50: 2 µM
Vero cells; [4]
  EC50: 10 µM

## CC(COc1ccccc1Cc1ccccc1)N1CCCCC1 (centres unmarked) [Benproperine]
[1]; [4]
  EC50: 1.26 µM
Vero cells; [4]
  EC50: 15.8 µM

## CN1CCN(c2nc3cc(C(F)(F)F)ccc3n3cccc23)CC1.O=C(O)/C=C\C(=O)O.O=C(O)/C=C\C(=O)O [CGS 12066B]
[1]; [4]
  pEC50 (cruzi): 5.5
Vero cells; [4]
  pEC50 (Vero): 4.8

## CCOc1nc2cccc(C(=O)OC(C)OC(=O)OC3CCCCC3)c2n1Cc1ccc(-c2ccccc2-c2nnn[nH]2)cc1 (centres unmarked) [Candesartan cilexetil]
[1]; [4]
  EC50: 6.31 µM
Vero cells; [4]
  EC50: 12.6 µM

## COC(=O)C1=C(C)NC(C)=C(C(=O)OCCN(C)Cc2ccccc2)C1c1cccc([N+](=O)[O-])c1 (centres unmarked) [Cardene]
[1]; [4]
  EC50: 3.98 µM
Vero cells; [4]
  EC50: 15.8 µM

## COc1ccccc1OCCNCC(O)COc1cccc2[nH]c3ccccc3c12 (centres unmarked) [Carvedilol]
[1]; [4]
  EC50: 5.01 µM
Vero cells; [4]
  EC50: 15.8 µM

## CN(C)CCCN1c2ccccc2Sc2ccc(Cl)cc21 [Chlorpromazine]
[1]; [4]
  EC50: 3.98 µM
Vero cells; [4]
  EC50: 10 µM

## CN(C)CC/C=C1/c2ccccc2Sc2ccc(Cl)cc21 [Chlorprothixene]
[1]; [4]
  EC50: 3.16 µM
Vero cells; [4]
  EC50: 15.8 µM

## COCCOC(=O)C1=C(C)NC(C)=C(C(=O)OC/C=C/c2ccccc2)C1c1cccc([N+](=O)[O-])c1 (centres unmarked) [Cilnidipine]
[1]; [4]
  EC50: 1.26 µM
Vero cells; [4]
  EC50: 15.8 µM

## Clc1ccccc1C(c1ccccc1)(c1ccccc1)n1ccnc1 [Clotrimazole]
Intracellular T. cruzi [2]
  MCC: 2.51e-08 M
Intracellular T. cruzi [3]
  Emax: 60%

## C#C[C@]1(O)CC[C@H]2[C@@H]3CCC4=Cc5oncc5C[C@]4(C)[C@H]3CC[C@@]21C [Danazol]
[1]; [4]
  EC50: 3.98 µM
Vero cells; [4]
  EC50: 15.8 µM

## CN(C)[C@@H](CCOc1cccc2ccccc12)c1ccccc1 [Dapoxetine]
[1]; [4]
  EC50: 5.01 µM
Vero cells; [4]
  EC50: 15.8 µM

## CCOC(=O)C1(c2ccccc2)CCN(CCC(C#N)(c2ccccc2)c2ccccc2)CC1 [Diphenoxylate]
[1]; 72 h
  EC50: 2.51 µM
Vero cells; 72 h
  EC50: 15.8 µM

## COc1cc2nc(N3CCN(C(=O)C4COc5ccccc5O4)CC3)nc(N)c2cc1OC (centres unmarked) [Doxazosin]
[1]; [4]
  EC50: 5.01 µM
Vero cells; [4]
  EC50: 15.8 µM

## CNCC[C@H](Oc1cccc2ccccc12)c1cccs1 [Duloxetine]
[1]; 72 h
  EC50: 6.31 µM
Vero cells; 72 h
  EC50: 15.8 µM

## C[C@]12C=CC(=O)N[C@@H]1CC[C@@H]1[C@@H]2CC[C@]2(C)[C@@H](C(=O)Nc3cc(C(F)(F)F)ccc3C(F)(F)F)CC[C@@H]12 [Dutasteride]
[1]; 72 h
  EC50: 15.8 µM
Vero cells; 72 h
  EC50: 15.8 µM

## Clc1ccc(COC(Cn2ccnc2)c2ccc(Cl)cc2Cl)cc1 (centres unmarked) [Econazole]
Intracellular T. cruzi [2]
  MCC: 6.31e-08 M
Intracellular T. cruzi [3]
  Emax: 63%

## C=C1[C@H](CO)[C@@H](O)C[C@@H]1n1cnc2c(=O)[nH]c(N)nc21 [Entecavir]
[1]; [4]
  EC50: 3.98 µM
Vero cells; [4]
  EC50: 15.8 µM
